Counter-ions that a name gives are not always drawn.
molecular target: T1, Syk tyrosine kinase (Homo sapiens, UniProt P43405); test: Syk tyrosine kinase inhibition test (SPA system); format: biochemical; details: His-tag fused human Syk, Band 3 peptide, [γ-33P]ATP, room temperature 1 hour; read-out: inhibition activity as IC50 value upon Syk tyrosine kinase
T1 construct: FLAG tag (8 amino acid residues) (C); made in house; host or cells: Sf-9 insect cells (baculovirus, pFASTBAC HT)

IC50, ≤ 100 nM:
NCCNc1ncc(C(N)=O)c(Nc2ccc3ccccc3c2)n1 [2-(2-aminoethylamino)-4-(2-naphthylamino)pyrimidine-5-carboxamide], NCCNc1ncc(C(N)=O)c(Nc2cccc(C(F)(F)F)c2)n1 [2-(2-aminoethylamino)-4-(3-trifluoromethylanilino)pyrimidine-5-carboxamide], NC(=O)c1cnc(NC2CCCCC2N)nc1Nc1cc(Cl)cc(Cl)c1 (stereo not drawn) [2-(cis-2-aminohexylamino)-4-(3,5-dichloroanilino)pyrimidine-5-carboxamide dihydrochloride], NCCNc1ncc(C(N)=O)c(Nc2cccc([N+](=O)[O-])c2)n1 [2-(2-aminoethylamino)-4-(3-nitroanilino)pyrimidine-5-carboxamide]

From patent US6432963B1, “Pyrimidine-5-carboxamide derivatives” (Yamanouchi Pharmaceutical Co., Ltd., priority 1997, dated 2002)
